Values joined by “and” are separate entries in the source; they are usually repeats but may differ in a detail not shown here. Identical values can stand only once.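 Where inhibition never reached the appropriate level, the endpoint shown equals the highest concentration tested. Otherwise, values were interpolated linearly from a five-concentration, 48-hour dose response in 96-well plates. GI50: concentration for 50% inhibition of growth. TGI denotes the concentration required for complete inhibition of growth.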
Legend:
Assay in all cases: NCI tumour cell line growth inhibition, 48 h
KM20L2 colon = test system: KM20L2 colon
SNB-78 CNS = test system: SNB-78 CNS
P388 leukemia = test system: P388 leukemia
HOP-18 NSCLC = test system: HOP-18 NSCLC
P388/ADR leukemia = test system: P388/ADR leukemia
M19-MEL melanoma = test system: M19-MEL melanoma
XF 498 CNS = test system: XF 498 CNS
DMS 114 small cell lung = test system: DMS 114 small cell lung
SN12K1 renal = test system: SN12K1 renal
DLD-1 colon = test system: DLD-1 colon
LXFL 529 NSCLC = test system: LXFL 529 NSCLC
RXF-631 renal = test system: RXF-631 renal

SMILES | TGI (KM20L2 colon) | TGI (SNB-78 CNS) | TGI (P388 leukemia) | TGI (HOP-18 NSCLC) | TGI (P388/ADR leukemia) | TGI (M19-MEL melanoma) | TGI (XF 498 CNS) | TGI (DMS 114 small cell lung) | TGI (SN12K1 renal) | TGI (DLD-1 colon) | TGI (LXFL 529 NSCLC) | TGI (RXF-631 renal) | GI50 (XF 498 CNS) | GI50 (DMS 114 small cell lung)
COc1cc(/C=C/C(=O)O)ccc1C(=O)O/C=C/c1ccccc1 | > 100 µM | > 100 µM | > 100 µM | > 100 µM | 68.9 µM | > 100 µM | > 100 µM | > 100 µM | > 100 µM | > 100 µM | – | – | – | –
NC(=O)C(=O)N/N=C1/c2ccccc2CC1C1(O)C(=O)Nc2c(Cl)cc(Cl)cc21 (stereo unspecified) | > 100 µM | > 100 µM | – | > 100 µM | – | > 100 µM | > 100 µM | > 100 µM | – | > 100 µM | – | – | – | –
CCC12C[N+]3([O-])CCc4c([nH]c5ccccc45)C(C(=O)OC)(c4cc5c(cc4OC)N(C)C4C(O)(C(=O)OC)C(OC(C)=O)C6(CC)C=CCN7CCC54C76)CC(C3)C1O2 (stereo unspecified) | 1.52 µM | 4.65 µM | – | 47.5 µM | – | 16 µM | 15.3 µM | 4.28 µM | – | 30.9 µM | 24.6 µM | – | – | –
COc1cc(/C=C2\C(=O)N(C(=O)Cc3ccccc3)N=C2C)ccc1O | – | > 100 µM | – | > 100 µM | – | > 100 µM | > 100 µM | > 100 µM | – | > 100 µM | – | – | – | –
C/C(=C\c1ccccc1)C(=O)CCN1CCOCC1 | 36.1 µM | 35.4 µM | 36.1 µM | 32.3 µM | > 55.1 µM | 33.8 µM | 33.3 µM | 35.2 µM | 32.8 µM | 33.4 µM | – | – | – | –
C/C(=N/NC(N)=S)c1ccc2ccccc2c1 | 80.4 µM | > 100 µM | – | – | – | > 100 µM | > 100 µM | 49.9 µM | – | > 100 µM | > 100 µM | – | – | –
C=C1C(=O)OC2/C=C(\CO)C(OC(C)=O)CC(O)/C(C)=C/C(OC(=O)C(C)CC)C12 (stereo unspecified) | 58.6 µM | 42.9 µM | – | 38.5 µM | – | 33 µM | 29.7 µM | > 56.8 µM | – | 26.5 µM | 28.3 µM | > 100 µM | – | –
CCC(C(=O)O)c1ccc(OCc2ccccc2)cc1 (stereo unspecified) | > 100 µM | > 100 µM | – | – | – | – | > 100 µM | > 100 µM | – | > 100 µM | > 100 µM | – | – | –
CN(C)C(CN)CC1=C(CC(CN)N(C)C)CCC1 (stereo unspecified) | > 100 µM | > 100 µM | > 100 µM | > 100 µM | > 100 µM | > 100 µM | > 100 µM | > 100 µM | > 100 µM | > 100 µM | – | – | – | –
CCOC(=O)C1=C(C(C)=O)CSC(c2ccccc2)=N1 | > 100 µM | > 100 µM | > 100 µM | > 100 µM | > 100 µM | > 100 µM | > 100 µM | > 100 µM | > 100 µM | > 100 µM | – | – | – | –
CCN(CC)CCNc1ccc2nnn3c4ccc(OC)cc4c(=O)c1c23 | 20 µM | 25.8 µM | – | 23.2 µM | – | 26.3 µM | – | 21.2 µM | – | 22 µM | 21.4 µM | 16.3 µM | – | –
CSC1CC2C(CC1(C)O)C2(C)C (stereo unspecified) | > 100 µM | > 100 µM | – | – | – | > 100 µM | 79.1 µM and > 100 µM | 72.1 µM and > 100 µM | – | > 100 µM | > 100 µM | – | 16.4 µM and > 100 µM | 15.7 µM and > 100 µM
CC(C)(C)C1=Cc2cc3cc(C(C)(C)C)[nH]c(=O)c3cc2S(=O)(=O)N1 | – | > 100 µM | – | – | – | 40.7 µM | – | 44.4 µM | – | > 100 µM | 76.7 µM | – | – | –
O=C(CP(=O)(O)O)c1cccs1 | > 100 µM | > 100 µM | – | > 100 µM | – | > 100 µM | – | > 100 µM | – | > 100 µM | > 100 µM | – | – | –
C=C1C(O)C2(O)OCC34C(CC5C(C)=CC(=O)C(O)C5(C)C23)OC(=O)C(OC(=O)C/C=C(\C)CCCCC)C14 (stereo unspecified) | 0.199 µM | 0.0373 µM | – | 1.1 µM | 0.454 µM | 0.0173 µM | 0.0232 µM | 0.0161 µM | 0.016 µM | 0.159 µM | – | – | – | –

From PubChem BioAssay (NCI)
